Laboratory results published in the NIST ThermoML archive (doi:10.1021/je800883b).

Columns and labels:
[1] = xn = mol fraction of the nth substance listed; conditions: 101 kPa, Liquid, Pycnometric method
[2] = 101 kPa, Liquid, Pycnometric method

CCC(C)=O [butanone] + c1ccccc1
mass density [kg/m3], [1]
Conditions | x1 = 0.101 | x1 = 0.1999 | x1 = 0.2988 | x1 = 0.3969 | x1 = 0.4996 | x1 = 0.5988 | x1 = 0.6993 | x1 = 0.7931 | x1 = 0.8961 | x1 = 1
303.15 K | 861.2 | 854.2 | 847.1 | 839.9 | 832.7 | 825.2 | 817.5 | 809.9 | 802.2 | 794.6
313.15 K | 850.6 | 843.5 | 836.6 | 829.3 | 822.1 | 814.6 | 806.9 | 799.4 | 791.7 | 784
323.15 K | 839.9 | 832.9 | 825.9 | 818.7 | 811.5 | 803.9 | 796.4 | 788.9 | 781.1 | 773.3

c1ccccc1 [benzene] + CCC(C)=O
[1], x2 = 0
Conditions | mass density [kg/m3]
303.15 K | 868.1
313.15 K | 857.4
323.15 K | 846.6

CCCCCC [hexane] + CCC(C)=O
[1], x2 = 0
Conditions | mass density [kg/m3]
303.15 K | 650.9
313.15 K | 641.7
323.15 K | 630.9

C1CCCCC1 [cyclohexane] + CCC(C)=O
[1], x2 = 0
Conditions | mass density [kg/m3]
303.15 K | 768.9
313.15 K | 759.2
323.15 K | 748.7

C1CCCCC1 [cyclohexane]
[2]
Conditions | mass density [kg/m3]
303.15 K | 768.9
313.15 K | 759.2
323.15 K | 748.7

CCC(C)=O [butanone] + CCCCCC
mass density [kg/m3], [1]
Conditions | x1 = 0.1057 | x1 = 0.2048 | x1 = 0.3035 | x1 = 0.4071 | x1 = 0.5035 | x1 = 0.6029 | x1 = 0.7042 | x1 = 0.8059 | x1 = 0.9033 | x1 = 1
303.15 K | 660 | 670 | 680.6 | 692.9 | 706 | 720.7 | 736.8 | 754.9 | 774 | 794.6
313.15 K | 650.4 | 659 | 669.5 | 682 | 694.7 | 709.2 | 725.3 | 742.9 | 763 | 784
323.15 K | 639.6 | 648 | 658.5 | 670.4 | 683.8 | 698.2 | 714.2 | 732.2 | 752.3 | 773.3

CCCCCC [hexane]
[2]
Conditions | mass density [kg/m3]
303.15 K | 650.9
313.15 K | 641.7
323.15 K | 630.9

c1ccccc1 [benzene]
[2]
Conditions | mass density [kg/m3]
303.15 K | 868.1
313.15 K | 857.4
323.15 K | 846.6

CCC(C)=O [butanone]
[2]
Conditions | mass density [kg/m3]
303.15 K | 794.6
313.15 K | 784
323.15 K | 773.3

CCC(C)=O [butanone] + C1CCCCC1
mass density [kg/m3], [1]
Conditions | x1 = 0.1066 | x1 = 0.2093 | x1 = 0.3084 | x1 = 0.4042 | x1 = 0.5064 | x1 = 0.6055 | x1 = 0.7007 | x1 = 0.8015 | x1 = 0.907 | x1 = 1
303.15 K | 768 | 768.3 | 769.5 | 771.3 | 773.6 | 776.2 | 779.8 | 784 | 789.6 | 794.6
313.15 K | 758.3 | 757.4 | 758.2 | 759.9 | 762.4 | 765.1 | 769.2 | 772.7 | 777.8 | 784
323.15 K | 747.4 | 746.5 | 747.3 | 749.2 | 751.3 | 754.4 | 757.8 | 761.7 | 767.2 | 773.3
